System: SEM cells
Assay: cell viability relative to DMSO control; higher = less cytotoxic
Details: 48 h
In short: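 Three leukemia lines were tested: NOMO1 and SEM at 500 cells/well and P12-Ichikawa at 1000 cells/well. Each was adapted for at least four passages in each medium and seeded in 5 μl in 1536-well plates, and library compounds in DMSO were pin-dosed from 47 μM to 0.79 nM in 11 threefold steps. After 48 h at 37°C, CellTiter-Glo One luminescence was read. Viability is a percentage relative to DMSO wells on each plate, with cell-free wells as background.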

[1] = HPLM + 10% dialyzed FBS, 0.000781 µM
[2] = HPLM + 10% dialyzed FBS, 0.00234 µM
[3] = HPLM + 10% dialyzed FBS, 0.00702 µM
[4] = HPLM + 10% dialyzed FBS, 0.0211 µM
[5] = HPLM + 10% dialyzed FBS, 0.0632 µM
[6] = HPLM + 10% dialyzed FBS, 0.19 µM
[7] = HPLM + 10% dialyzed FBS, 0.569 µM
[8] = HPLM + 10% dialyzed FBS, 1.71 µM
[9] = HPLM + 10% dialyzed FBS, 5.12 µM
[10] = HPLM + 10% dialyzed FBS, 15.4 µM
[11] = HPLM + 10% dialyzed FBS, 46.1 µM
[12] = RPMI 5 mM glucose + 10% FBS, 0.000781 µM
[13] = RPMI 5 mM glucose + 10% FBS, 0.00234 µM
[14] = RPMI 5 mM glucose + 10% FBS, 0.00702 µM
[15] = RPMI 5 mM glucose + 10% FBS, 0.0211 µM
[16] = RPMI 5 mM glucose + 10% FBS, 0.0632 µM
[17] = RPMI 5 mM glucose + 10% FBS, 0.19 µM
[18] = RPMI 5 mM glucose + 10% FBS, 0.569 µM
[19] = RPMI 5 mM glucose + 10% FBS, 1.71 µM
[20] = RPMI 5 mM glucose + 10% FBS, 5.12 µM
[21] = RPMI 5 mM glucose + 10% FBS, 15.4 µM
[22] = RPMI 5 mM glucose + 10% FBS, 46.1 µM
[23] = RPMI 5 mM glucose + 10% dialyzed FBS, 0.000781 µM
[24] = RPMI 5 mM glucose + 10% dialyzed FBS, 0.00234 µM
[25] = RPMI 5 mM glucose + 10% dialyzed FBS, 0.00702 µM
[26] = RPMI 5 mM glucose + 10% dialyzed FBS, 0.0211 µM
[27] = RPMI 5 mM glucose + 10% dialyzed FBS, 0.0632 µM
[28] = RPMI 5 mM glucose + 10% dialyzed FBS, 0.19 µM
[29] = RPMI 5 mM glucose + 10% dialyzed FBS, 0.569 µM
[30] = RPMI 5 mM glucose + 10% dialyzed FBS, 1.71 µM
[31] = RPMI 5 mM glucose + 10% dialyzed FBS, 5.12 µM
[32] = RPMI 5 mM glucose + 10% dialyzed FBS, 15.4 µM
[33] = RPMI 5 mM glucose + 10% dialyzed FBS, 46.1 µM

Row | Structure (SMILES) | cell viability [1] [%] | cell viability [2] [%] | cell viability [3] [%] | cell viability [4] [%] | cell viability [5] [%] | cell viability [6] [%] | cell viability [7] [%] | cell viability [8] [%] | cell viability [9] [%] | cell viability [10] [%] | cell viability [11] [%] | cell viability [12] [%] | cell viability [13] [%] | cell viability [14] [%] | cell viability [15] [%] | cell viability [16] [%] | cell viability [17] [%] | cell viability [18] [%] | cell viability [19] [%] | cell viability [20] [%] | cell viability [21] [%] | cell viability [22] [%] | cell viability [23] [%] | cell viability [24] [%] | cell viability [25] [%] | cell viability [26] [%] | cell viability [27] [%] | cell viability [28] [%] | cell viability [29] [%] | cell viability [30] [%] | cell viability [31] [%] | cell viability [32] [%] | cell viability [33] [%]
1 | CC[C@H]1OC(=O)[C@H](C)C(=O)[C@H](C)[C@@H](O[C@H]2O[C@H](C)C[C@H](N(C)C)[C@H]2O)[C@](C)(OC)C[C@@H](C)C(=O)[C@H](C)[C@H]2N(CCCCn3cnc(-c4cccnc4)c3)C(=O)O[C@]12C | 99.7 | 118 | 136 | 120 | 135 | 123 | 105 | 109 | 107 | 105 | 85.2 | 95.6 | 110 | 116 | 117 | 124 | 114 | 114 | 97.8 | 119 | 102 | 93.3 | 110 | 124 | 121 | 117 | 135 | 126 | 99.3 | 119 | 104 | 118 | 86.1
2 | Oc1nc(-c2ccc(C(F)(F)F)cc2)nc2c1CSCC2 | 90.6 | 95.7 | 107 | 50.8 | 110 | 106 | 97.4 | 97.8 | 91.1 | 84.3 | 79.6 | 101 | 102 | 92.6 | 39.7 | 113 | 107 | 113 | 111 | 114 | 95.6 | 86 | 97.9 | 96.6 | 105 | 47 | 105 | 114 | 111 | 98.3 | 93.6 | 82.6 | 85.2
3 | CCOC(=O)\C1=C\[C@]2(CC)CCCN3CCC4=C([C@H]23)[N]1C5=C4C=CC=C5 | 71.6 | 100 | 87.6 | 111 | 118 | 103 | 104 | 111 | 114 | 97.7 | 80.7 | 103 | 104 | 111 | 114 | 121 | 112 | 110 | 108 | 109 | 107 | 77.1 | 93.7 | 111 | 112 | 108 | 116 | 124 | 126 | 108 | 118 | 105 | 94.7
4 | COc1cc2c(cc1OC)CN(CCc1ccc(NC(=O)c3cc(OC)c(OC)cc3NC(=O)c3cnc4ccccc4c3)cc1)CC2 | 116 | 115 | 116 | 123 | 111 | 110 | 123 | 120 | 101 | 69 | 79.6 | – | – | – | – | – | – | – | – | – | – | – | 115 | 123 | 114 | 108 | 122 | 123 | 121 | 132 | 103 | 59.9 | 47.9
5 | CNC(=O)c1ccc(Nc2cc(Nc3ccccc3[S+](=O)([O-])C(C)C)c3cc[nH]c3n2)nc1 | 81.7 | 76.4 | 96.5 | 90.7 | 89.8 | 98.3 | 82.9 | 38.2 | 28.4 | 24.3 | 16.8 | 93.5 | 118 | 106 | 114 | 104 | 102 | 101 | 48.9 | 20.8 | 17.7 | 6.52 | 83.9 | 99.4 | 98.5 | 94.7 | 102 | 97.6 | 85 | 27 | 20.1 | 17.4 | 7.56
6 | COC(=O)c1ccc2c(c1)NC(=O)/C2=C(\Nc1ccc(N(C)C(=O)CN2CCN(C)CC2)cc1)c1ccccc1 | 76.7 | 79.4 | 60.3 | 30.1 | 48.9 | 50.9 | 46.4 | 38.3 | 37.9 | 30.5 | 23.8 | 96.1 | 92.7 | 84.2 | 31.7 | 68 | 60 | 57.5 | 43.8 | 41.3 | 36.7 | 24.5 | 82.9 | 83.2 | 60.1 | 30.8 | 49.2 | 44.6 | 38.7 | 35.9 | 30.2 | 29.8 | 25.4
7 | COc1c(C)c2c(c(O)c1C/C=C(\C)CCC(=O)O)C(=O)OC2 | 92.9 | 104 | 104 | 111 | 113 | 100 | 120 | 111 | 97 | 61.2 | 33.3 | 102 | 105 | 114 | 109 | 113 | 102 | 118 | 98.2 | 77 | 48.1 | 29.9 | 102 | 104 | 115 | 81.9 | 114 | 108 | 100 | 116 | 108 | 64.8 | 45.6
8 | CC(C)(O)CC(=O)NCCn1ccc2ncnc(Nc3ccc(Oc4cccc(C(F)(F)F)c4)c(Cl)c3)c21 | 106 | 110 | 102 | 103 | 112 | 105 | 103 | 96.5 | 94.6 | 71.6 | 32.9 | – | – | – | – | – | – | – | – | – | – | – | 105 | 88 | 102 | 103 | 109 | 107 | 100 | 101 | 90.4 | 58.5 | 23.6
9 | O=C(CCCN1CCN(c2ccc(F)cc2)CC1)NC1c2ccccc2CSc2ccccc21 (centres undefined) | 111 | 135 | 116 | 126 | 131 | 121 | 33.8 | 126 | 113 | 118 | 89.6 | 128 | 112 | 115 | 115 | 120 | 118 | 51 | 103 | 101 | 92 | 49.9 | 112 | 122 | 102 | 104 | 123 | 112 | 40.7 | 113 | 95.3 | 81.2 | 43.6
10 | Nc1c2c(nc3ccccc13)CCCC2 | 92.9 | 104 | 118 | 109 | 115 | 118 | 101 | 25.6 | 108 | 108 | 86.1 | 121 | 123 | 122 | 109 | 111 | 112 | 97.3 | 17.5 | 100 | 118 | 80.5 | 109 | 131 | 123 | 104 | 112 | 123 | 95.7 | 24.7 | 117 | 104 | 87.6
11 | CC12CC3CC(C)(C1)CC(N)(C3)C2 | 89.4 | 107 | 93.2 | 105 | 96.7 | 99.4 | 127 | 126 | 103 | 114 | 105 | 106 | 94.4 | 105 | 109 | 110 | 106 | 122 | 114 | 133 | 123 | 131 | 84.3 | 86.8 | 88.6 | 116 | 102 | 104 | 110 | 103 | 101 | 95.5 | 104
12 | C[C@]12CC[C@H]3[C@@H](CCC4=CC(=O)CC[C@@H]43)[C@@H]1CC[C@@H]2OC(=O)CCc1ccccc1 | 83.2 | 22.9 | 101 | 93.8 | 100 | 98.5 | 94.3 | 99.6 | 85.9 | 91.4 | 93.6 | 116 | 24.5 | 123 | 111 | 116 | 115 | 108 | 122 | 110 | 120 | 114 | 99.4 | 26.5 | 107 | 122 | 112 | 109 | 104 | 123 | 100 | 125 | 113
13 | COc1cc[nH]c2ncc(C(=O)C(=O)N3CCN(C(=O)c4ccccc4)C[C@H]3C)c1-2 | 89.9 | 87.6 | 77.4 | 90.1 | 58.5 | 82.6 | 92 | 96.8 | 88.8 | 94.2 | 109 | 115 | 109 | 112 | 116 | 74.2 | 100 | 100 | 103 | 113 | 99.9 | 96.9 | 118 | 109 | 129 | 115 | 84.4 | 102 | 107 | 101 | 102 | 103 | 106
14 | N[C@@H]1CONC1=O | 99.7 | 100 | 103 | 97.7 | 104 | 109 | 107 | 98.5 | 104 | 103 | 118 | 91.3 | 96 | 84.7 | 93.5 | 86 | 93.3 | 108 | 94.9 | 89.6 | 92.2 | 92.4 | 91.2 | 81.3 | 89.7 | 89.2 | 97.8 | 87.4 | 101 | 93.7 | 81.6 | 101 | 80.6
15 | COc1cc(C(=O)N2CC[C@@H](O)[C@@H](N)C2)cc2nc(-c3cc4ccccc4n3CC3CC3)n(C)c12 | 97.9 | 118 | 116 | 124 | 119 | 117 | 124 | 51.1 | 28.6 | 27.4 | 20.1 | – | – | – | – | – | – | – | – | – | – | – | – | – | – | – | – | – | – | – | – | – | –
16 | CC(N[C@H]1CCCC[C@@H]1NC(=O)c1ccc(Cl)cc1)c1cccc2ccccc12 (some centres undefined) | 98.2 | 105 | 110 | 114 | 111 | 112 | 101 | 115 | 112 | 118 | 119 | 92.2 | 102 | 109 | 120 | 107 | 108 | 121 | 113 | 119 | 138 | 110 | 120 | 112 | 109 | 114 | 116 | 114 | 125 | 127 | 115 | 133 | 121
